From patent publication US20140377350A1, “BILAYER TABLET FORMULATIONS OF FLURBIPROFEN AND GLUCOSAMIN” (Sanovel Ilac Sanayi Ve Ticaret Anonim Sirketi, priority 2012, published 2014)

Tests used:
[1] = cited from earlier work
[2] = in-vitro release (dissolution) of the actives from the bilayer tablet, USP paddle method; assay type: physicochemical; settings: 900 ml phosphate buffer pH 7.2, 37° C., 50 RPM
Method: Therefore, the release profiles of the actives are as follows; the maximum 40% of total amount of flurbiprofen is released in 2 hours and 50-80% in 6 hours and at least 75% in 8 hours in 900 ml of phosphate buffer at pH 7.2 at 37° C. using USP paddle method rotating at 50 RPM. Glucosamine is released immediately and minimum 75% of the total amount is dissolved in 60 min.

- total amount of flurbiprofen released ([2]; in 2 hours): ≤ 40%
- total amount of flurbiprofen released ([2]; in 6 hours): 50-80%
Structure (SMILES): CC(C(=O)O)c1ccc(-c2ccccc2)c(F)c1 (stereo not drawn) [flurbiprofen, Flurbiprofen]
- solubility in water [1]: practically insoluble
